Reference: patent US4083947A, “Organ visualization” (The Radiochemical Centre Limited, priority 1975, dated 1978)

How the values were obtained:
[1] = cited from earlier work
[2] = cited from earlier work; remark: listed apart in the source
[3] = cited from earlier work; remark: listed apart in the source
[4] = Adrenal scanning/visualization in patients, comparison of 75Se compound with 19-iodocholesterol-131I; assay type: in vivo, humans
Procedure: Two patients with Cushing Syndrome were injected intravenously with 500μCi of 6β-methylselenomethyl-19-norcholest-5(10)-en-3β-ol-^75 Se formulated in normal saline stabilized with polysorbate. Repeated gamma camera scans and whole body-, urine- and blood measurements were made during a period of two weeks post injection. In one patient a maximum uptake of 17μCi in the left adrenal region was measured, the removed adrenal cortex adenoma, weight 66 g, containing 15μCi of ^75 Se.
Furthermore, the ^75 Se compound allowed scans to be taken at an earlier point of time after injection than was the case with 19-iodocholesterol-^131 I (2-3 days in contrast to 6-10 days p.i.).

[5] = compared with 19-iodocholesterol-131I; cited from earlier work

Row | SMILES | concentration in / uptake into human adrenal glands [1] | concentration in rat adrenal tissue [2] | concentration in adrenal glands of dogs [3] | time after injection at which scans could be taken ([4]; p.i.) [days] | dose giving equally good adrenal scans ([4]; per kg body weight, adrenal cortex adenomas or hyperplasia) | effectiveness as adrenal scanning agent [5]
1 | CC(C)CCC[C@@H](C)[C@H]1CC[C@H]2[C@@H]3CC=C4C[C@@H](O)CC[C@]4(C[131I])[C@H]3CC[C@]12C [19-iodocholesterol-^131 I] | concentrate in the adrenal glands | concentrate in the adrenal glands | concentrate in the adrenal glands | 6 to 10 | 10-20 μCi/kg | 
2 | CC(C)CCC[C@@H](C)[C@H]1CC[C@H]2[C@@H]3C[C@@H](C[131I])C4=C(CC[C@H](O)C4)[C@H]3CC[C@]12C [^131 I-iodinated rearranged product, 6β-iodomethyl-19-norcholest-5(10)-en-3β-ol] |  |  |  |  |  | far more effective adrenal scanning agent than 19-iodocholesterol-^131 I
